Literature values in patent US20190008832A1, “COMPOSITIONS FOR THE TREATMENT OF PRESBYOPIA” (priority 2015, published 2019).

Tested on: eye

CC[C@@H]1C(=O)OC[C@@H]1Cc1cncn1C [pilocarpine]
Side effects in some patients (WO2008/075149 compositions: pilocarpine HCl 1% and diclofenac sodium 0.5%): causes diarrhea and dyspepsia | Percentage of pilocarpine necessary to be effective in the treatment of presbyopia (single active ingredient in a topical composition): greater than 0.5 % by weight | Tolerability of pilocarpine at percentages higher than 0.5% by weight (topical, reddening of the eye, ocular and forehead pain, headaches): not tolerated
